Test results from ChEMBL document CHEMBL1201862, “PubChem BioAssay data set” (2004).
Activity calls are given as the source filed them. Cut-off read from the data, not from the text of the source, for most assays here: actives have a measured EC50 and inactives only a lower limit.

Columns and labels:
[1] = target: T1, Ubiquitin-conjugating enzyme E2 N (Homo sapiens, UniProt P61088); type: functional;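 note: Dose-response confirmation in a TR-FRET assay detecting UBC13-driven polyubiquitin chain formation, inhibition measured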
T1 sequence (P61088 whole entry): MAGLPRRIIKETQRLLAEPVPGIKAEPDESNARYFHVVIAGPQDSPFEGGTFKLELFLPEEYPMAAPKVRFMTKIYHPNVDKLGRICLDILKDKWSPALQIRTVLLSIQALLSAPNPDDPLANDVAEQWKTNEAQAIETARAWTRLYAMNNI

[2] = system: H9c2; experiment: cells; type: functional, cell-based; details: Rattus norvegicus, H9c2, Myocardium;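 note: confirmatory concentration-response retest of ultra-high-throughput screening hits for modulation of myocardial damage; cell death induced by hydrogen peroxide oxidative stress; compound pretreatment for 60 min then peroxide exposure for 2 h; potency is for protecting the cells against peroxide damage rather than for killing them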
[3] = Luminescence Cell-Based Dose Confirmation HTS to Identify Activators of 5'UTR Stem-Loop Driven Alpha-Synuclein mRNA Translation in H4 Neuroglioblastoma Cells. [Related pubchem assays: 1829 (Project Summary), 1814 (Primary HTS)]; type: functional
[4] = Luminescence Cell-Based Dose Response HTS to Identify Activators of Luciferase Translation or Activity in H4 […] Cells. [Related pubchem assays: 1829 (Project Summary), 1814 (Primary HTS)]; type: functional
[5] = system: H4; experiment: Luminescence Cell-Based Dose Response HTS to Identify Activators of 5'UTR Stem-Loop Driven Prion Protein mRNA Translation in H4 Neuroglioblastoma Cells. [Related pubchem assays: 1829 (Project Summary), 1814 (Primary HTS)]; type: functional; details: Homo sapiens
[6] = target: T2, RNA-binding protein pos-1 (Caenorhabditis elegans, UniProt G5EF15); experiment: disruptors of C. elegans POS-1 RNA interaction – biochemical, fluorescence polarization, dose response (AID 1964);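 note: purified POS-1 fused to maltose binding protein made in E. coli; potency of compounds blocking POS-1 binding to fluorescent RNA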
T2 sequence (G5EF15 whole entry): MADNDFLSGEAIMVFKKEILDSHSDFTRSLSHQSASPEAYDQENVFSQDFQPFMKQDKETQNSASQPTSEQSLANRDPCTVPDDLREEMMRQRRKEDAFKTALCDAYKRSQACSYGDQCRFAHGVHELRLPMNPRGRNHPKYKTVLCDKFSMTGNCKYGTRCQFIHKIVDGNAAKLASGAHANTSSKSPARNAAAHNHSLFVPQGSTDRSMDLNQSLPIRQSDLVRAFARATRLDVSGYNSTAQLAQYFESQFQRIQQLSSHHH

[7] = target: T3, Zinc finger protein mex-5 (Caenorhabditis elegans, UniProt Q9XUB2); experiment: potency of MEX-5 RNA-binding blockers – biochemical, C. elegans, fluorescence polarization, dose response (AID 1960)
T3 sequence (Q9XUB2 whole entry): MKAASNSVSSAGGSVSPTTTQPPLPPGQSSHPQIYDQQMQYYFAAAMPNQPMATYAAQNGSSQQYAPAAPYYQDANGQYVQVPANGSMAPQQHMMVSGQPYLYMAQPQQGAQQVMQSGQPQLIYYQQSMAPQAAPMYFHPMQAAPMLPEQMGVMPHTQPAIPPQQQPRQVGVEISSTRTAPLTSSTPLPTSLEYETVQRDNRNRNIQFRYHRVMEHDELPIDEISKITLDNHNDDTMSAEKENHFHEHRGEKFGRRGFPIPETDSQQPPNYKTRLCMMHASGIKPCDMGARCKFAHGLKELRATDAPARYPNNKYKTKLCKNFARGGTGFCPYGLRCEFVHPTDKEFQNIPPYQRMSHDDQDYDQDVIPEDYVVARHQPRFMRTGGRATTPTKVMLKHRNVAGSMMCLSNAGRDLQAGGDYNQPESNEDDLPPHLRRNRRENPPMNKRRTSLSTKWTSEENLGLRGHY

[8] = target: Luciferin 4-monooxygenase (Photinus pyralis, UniProt P08659); experiment: inhibition of purified Photinus pyralis luciferase – biochemical, luminescence, dose response (AID 1891)
[9] = system: Streptococcus sp. 'group A'; experiment: Streptococcus pyogenes SK(-)GAS viability under kanamycin – luminescence, BacTiterGlo, confirmation, counter-screen for streptokinase expression inhibitor project, dose response (AID 1900); type: functional, organism-based
[10] = target: T4, Streptokinase A (Streptococcus pyogenes serotype M1, UniProt P10520); experiment: viability-normalized secreted streptokinase activity reduction – plasminogen activation absorbance, OD405, dose response (AID 1914); type: functional, Streptococcus pyogenes M1 GAS;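 note: secreted streptokinase activity via plasminogen activation per viability signal from cell pellet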
T4 sequence (P10520 whole entry): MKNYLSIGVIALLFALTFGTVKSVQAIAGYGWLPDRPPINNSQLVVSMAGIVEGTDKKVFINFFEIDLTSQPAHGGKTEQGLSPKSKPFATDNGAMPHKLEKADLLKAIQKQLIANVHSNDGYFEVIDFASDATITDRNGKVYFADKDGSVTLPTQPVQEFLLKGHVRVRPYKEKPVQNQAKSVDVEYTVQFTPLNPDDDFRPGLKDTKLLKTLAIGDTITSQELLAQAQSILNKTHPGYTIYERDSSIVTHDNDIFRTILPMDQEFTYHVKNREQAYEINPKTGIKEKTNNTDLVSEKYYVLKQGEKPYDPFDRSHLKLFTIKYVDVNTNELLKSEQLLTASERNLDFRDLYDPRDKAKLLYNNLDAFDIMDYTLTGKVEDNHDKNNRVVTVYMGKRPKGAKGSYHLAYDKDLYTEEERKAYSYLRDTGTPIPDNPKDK

[11] = system: Streptococcus; experiment: GAS UMAA2166 growth inhibition – luminescence, BacTiterGlo, counter-screen for streptokinase expression inhibitor project, dose response (AID 1915); type: functional, organism-based;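 note: potency for reduction of bacterial viability or growth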
[12] = system: BJ; experiment: BJ-TERT fibroblast viability loss – cell-based, RAS-independent, luminescence, dose response (AID 1933); type: functional; details: Homo sapiens
[13] = system: BJ; experiment: cells; type: functional, cell-based; details: Homo sapiens
[14] = DRD fibroblast viability loss – cell-based, non-viral oncogenic, luminescence, dose response (AID 1934); type: functional; details: Homo sapiens
[15] = target: T5, Heat shock factor protein 1 (Mus musculus, UniProt P38532); experiment: decrease of HSF1-responsive luciferase luminescence – cell-based, NIH3T3, dose retest, confirmation (AID 2382); type: functional;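 note: NIH3T3 fibroblasts with HSF1-driven luciferase reporter stressed by proteasome inhibitor MG132; luminescence from HSF1-driven luciferase expression after 8 hours of MG132 stress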
T5 sequence (P38532 whole entry): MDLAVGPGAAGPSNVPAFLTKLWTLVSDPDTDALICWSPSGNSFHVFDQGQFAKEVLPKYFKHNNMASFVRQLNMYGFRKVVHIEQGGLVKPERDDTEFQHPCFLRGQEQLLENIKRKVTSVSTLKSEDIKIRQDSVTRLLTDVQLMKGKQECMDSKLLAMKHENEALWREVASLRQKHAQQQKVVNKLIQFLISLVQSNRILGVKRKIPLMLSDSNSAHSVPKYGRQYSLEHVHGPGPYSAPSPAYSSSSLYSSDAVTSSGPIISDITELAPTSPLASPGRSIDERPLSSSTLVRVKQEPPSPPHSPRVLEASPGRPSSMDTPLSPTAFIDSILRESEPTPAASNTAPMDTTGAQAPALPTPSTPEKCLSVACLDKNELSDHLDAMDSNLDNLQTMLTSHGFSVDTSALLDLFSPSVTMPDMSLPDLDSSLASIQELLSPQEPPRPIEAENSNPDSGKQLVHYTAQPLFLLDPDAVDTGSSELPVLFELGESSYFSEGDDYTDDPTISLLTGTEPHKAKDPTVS

[16] = reduction of Shn3 3'UTR-driven luciferase in osteoblasts – cell-based, Clone20 osteoblasts, firefly luciferase, cherry-picked, dose response (AID 624132); type: functional;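 note: firefly luciferase luminescence from reporter carrying the Shn3 3'UTR in osteoblasts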
[17] = target: T6, Corticotropin-releasing factor receptor 2/Corticotropin-releasing factor-binding protein (Homo sapiens, UniProt P24387+Q13324); experiment: Dose Response confirmation of uHTS hits for small molecule antagonists of the CRF-binding protein and CRF-R2 receptor complex.; type: functional; details: read-out: IC50_Mean
T6 sequence (Q13324 whole entry): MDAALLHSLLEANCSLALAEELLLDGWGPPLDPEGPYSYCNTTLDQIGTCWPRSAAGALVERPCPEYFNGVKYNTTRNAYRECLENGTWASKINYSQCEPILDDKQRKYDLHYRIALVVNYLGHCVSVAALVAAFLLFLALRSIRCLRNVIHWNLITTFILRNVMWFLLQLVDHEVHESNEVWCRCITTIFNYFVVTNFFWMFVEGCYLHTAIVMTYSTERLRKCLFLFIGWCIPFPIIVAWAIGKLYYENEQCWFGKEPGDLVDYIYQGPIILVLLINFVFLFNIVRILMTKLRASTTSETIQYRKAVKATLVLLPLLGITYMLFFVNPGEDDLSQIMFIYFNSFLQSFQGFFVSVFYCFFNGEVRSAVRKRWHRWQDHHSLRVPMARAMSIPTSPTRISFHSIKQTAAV
T6 sequence (P24387 whole entry): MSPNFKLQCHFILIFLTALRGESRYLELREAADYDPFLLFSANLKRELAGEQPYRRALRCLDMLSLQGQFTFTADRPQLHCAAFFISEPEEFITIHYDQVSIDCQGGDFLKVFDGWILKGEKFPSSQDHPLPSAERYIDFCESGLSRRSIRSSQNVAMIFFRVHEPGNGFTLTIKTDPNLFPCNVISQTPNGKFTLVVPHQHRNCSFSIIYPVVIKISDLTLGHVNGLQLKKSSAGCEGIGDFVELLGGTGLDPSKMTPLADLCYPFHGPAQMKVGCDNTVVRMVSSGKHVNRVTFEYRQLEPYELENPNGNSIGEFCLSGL

[18] = target: T6, Corticotropin-releasing factor receptor 2/Corticotropin-releasing factor-binding protein; experiment: activators of CRF receptor 2 with binding protein – uHTS hits, confirmation (AID 602473); type: functional; details: read-out: EC50_Mean

Sequence of Luciferin 4-monooxygenase (P08659 whole entry): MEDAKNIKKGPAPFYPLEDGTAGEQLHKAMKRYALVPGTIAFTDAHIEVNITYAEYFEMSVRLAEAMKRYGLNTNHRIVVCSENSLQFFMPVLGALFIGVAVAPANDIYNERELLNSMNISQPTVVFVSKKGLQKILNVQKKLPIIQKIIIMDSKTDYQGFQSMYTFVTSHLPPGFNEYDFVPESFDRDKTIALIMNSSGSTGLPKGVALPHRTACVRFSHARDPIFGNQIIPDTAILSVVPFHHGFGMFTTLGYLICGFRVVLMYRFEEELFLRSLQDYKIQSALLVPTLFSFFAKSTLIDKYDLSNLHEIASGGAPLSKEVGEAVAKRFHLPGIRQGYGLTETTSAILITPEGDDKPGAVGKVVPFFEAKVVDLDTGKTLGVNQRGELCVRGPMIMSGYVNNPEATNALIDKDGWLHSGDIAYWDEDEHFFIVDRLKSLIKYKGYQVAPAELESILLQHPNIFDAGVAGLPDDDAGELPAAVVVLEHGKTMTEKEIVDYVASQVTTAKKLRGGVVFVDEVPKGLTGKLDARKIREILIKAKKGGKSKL

O=C1c2cccc3cccc(c23)C(=O)N1Nc1ccccc1
IC50 [1]: > 20 µM (inactive)

CCSc1nnc(NC(=O)C2Cc3ccccc3CN2S(=O)(=O)CC)s1 (stereo not drawn)
IC50 [2]: 10 µM (active)

CC(=O)Nc1cc(C)nn1-c1nc2ccccc2s1
IC50 [2]: 11.6 µM (active)

CCCOc1ccc(OCCSc2nnc(N)s2)cc1
EC50 [3]: 23.1 µM (active)
EC50 [4]: 15 µM (active)
EC50 [5]: 15.2 µM (active)

COc1ccc2cc3cc(C(=O)NCCN4CCc5ccccc5C4)sc3nc2c1
EC50 [3]: 6.85 µM (active)
EC50 [4]: 17.8 µM (active)
EC50 [5]: 15.1 µM (active)

CC(=O)N(C)c1ccc(N=NC2C(=O)N(C(N)=S)N=C2C)cc1 (stereo not drawn)
EC50 [6]: > 300 µM (not active)
EC50 [7]: 34.6 µM (active)

Cc1c(O)ccc2c3c(c(=O)oc12)CCC(C)C3 (stereo not drawn)
IC50 [2]: > 79 µM (inactive)

COc1ccccc1N1C(=O)NC(=O)/C(=C\c2c[nH]c3ccccc23)C1=O
EC50 [6]: > 300 µM (not active)
EC50 [7]: > 300 µM (not active)

CCOC(=O)COc1cccc(C2NC(=O)c3ccccc3O2)c1 (stereo not drawn)
IC50 [2]: 12.7 µM (active)

COc1cc2c(cc1NC(=O)CSc1ccccn1)oc1ccccc12
EC50 [3]: 10.9 µM (active)
EC50 [4]: 15 µM (active)
EC50 [5]: 30.4 µM (active)

CN(C)CC(O)COc1ccc(C(C)(C)c2ccc(OCC(O)CN(C)C)cc2)cc1 (stereo not drawn)
IC50 [1]: > 20 µM (inactive)

CC(=O)Oc1ccc(-c2cc3ccc(OC(C)=O)cc3oc2=O)cc1
EC50 [8]: > 112 µM (not active)

CCOC(=O)c1c(NC(=O)Nc2ccc(F)cc2)sc2c1CCN(C)C2
EC50 [6]: 27.7 µM (inconclusive)
EC50 [7]: 39.8 µM (active)

O=C(NNC(=O)c1ccccc1OCc1ccccc1Cl)c1csc(N2CCOCC2)n1
EC50 [9]: 12.8 µM (active)
EC50 [10]: > 150 µM (not active)
EC50 [11]: > 150 µM (not active)
IC50 [2]: 12.8 µM (active)

COc1ccc(CC(=O)N(C)CC(=O)Nc2ccccc2Cl)cc1S(=O)(=O)N1CCOCC1
IC50 [1]: > 20 µM (inactive)

CCC(=O)OC1(C)C(=O)C=C2C=C(c3ccsc3)OC=C2C1=O (stereo not drawn)
EC50 [6]: 34.1 µM (active)
EC50 [7]: 32.5 µM (active)

Sc1nc2ccccc2c2ccccc12
IC50 [2]: 31.5 µM (inactive)

Cc1nc(-c2ccccn2)nc(S)c1Cl
IC50 [2]: > 79 µM (inactive)

O=C(NN1C(=O)c2ccc3c4c(ccc(c24)C1=O)CC3)c1ccc(Br)cc1
IC50 [1]: > 20 µM (inactive)

O=C(CSc1ccc2nnc(-c3ccc(F)cc3)n2n1)N1CCCc2ccccc21
IC50 [2]: > 79 µM (inactive)

N#CC1=C(N)Oc2cc(N)ccc2C1C1CCCCC1 (stereo not drawn)
EC50 [3]: > 120 µM (not active)
EC50 [4]: > 120 µM (not active)
EC50 [5]: > 120 µM (not active)

CCCCn1c(-c2cccs2)nc2nc3ccccc3nc21
IC50 [1]: > 20 µM (inactive)

CCc1ccc(/C=C2\SC(=S)N(CCC(=O)NCCCN3CCOCC3)C2=O)cc1
EC50 [12]: 1.24 µM (active)
EC50 [13]: > 150 µM (not active)
EC50 [14]: 5.87 µM (active)

CCN=C(S)N(C)CCc1cc2c(c(OC)c1C=C1C(=O)N(C)C(=O)N(C)C1=O)OCO2
EC50 [6]: > 300 µM (not active)
EC50 [7]: > 300 µM (not active)
EC50 [15]: > 195 µM (not active)

Cc1ccc(C2CN=NC23CCc2ccccc2C3=O)cc1 (stereo not drawn)
EC50 [3]: 15.3 µM (active)
EC50 [4]: 23.9 µM (active)
EC50 [5]: > 120 µM (not active)

CCNC(C(=O)c1c[nH]c2c(CC)cccc12)c1ccccc1 (stereo not drawn)
IC50 [1]: > 20 µM (inactive)

Nc1nnc(SCC(=O)Nc2ccc(N3CCOCC3)cc2)s1
AC50 [16]: 16.8 µM (active)

N#Cc1ccccc1OCC(=O)Nc1nc(-c2ccccn2)cs1
IC50 [2]: > 79 µM (inactive)

CC1(C)CC(=O)C2=C(C1)OC(/N=C/N1CCCC1)=C(C#N)C2c1ccccc1 (stereo not drawn)
EC50 [6]: > 300 µM (not active)
EC50 [7]: > 300 µM (not active)
IC50 [17]: > 47.1 µM (inactive)
EC50 [18]: > 53 µM (inactive)
